Data set [1] can be described thus: in vitro. Particulars: human, plasma.
Description: (§1) Unbound fraction in human plasma at 2 uM incubated for 2 hrs by LC/MS/MS analysis
Data set [2] relates to HT-1080. Kind of data set: animal or person. Conditions: Rattus norvegicus, HT-1080, iv, 336 h, read-out: MED.
Data set [3] can be described thus: in vitro. Particulars: mouse, plasma.
Description: Half life in mouse plasma at 2 uM by LC/MS/MS analysis
A short description of data set [4]: in vitro. Particulars: human, plasma. This is another data set of the same source.
Description: Half life in human plasma at 2 uM by LC/MS/MS analysis
The conditions of data set [5]: human, plasma, 2 h, 2 µM.
Description: as §1

The values below come from ChEMBL document CHEMBL4602699, “Identification and Optimization of EphA2-Selective Bicycles for the Delivery of Cytotoxic Payloads” (J Med Chem, 2020).

A word on the fraction unbound: it is the share of the substance not bound to proteins or other matrix. Higher therefore signals much free substance. The compound `COc1cc2cc(c1Cl)N(C)C(=O)C[C@@H](OC(=O)[C@@H](C)N(C)C(=O)CCSSCCCC(=O)NCCC(=O)N(C)C(=O)CN(C)C(=O)CN(C)C(=O)CN(C)C(=O)CN(C)C(=O)CN(C)C(=O)CN(C)CC(=O)N(C)CC(=O)N(C)CC(=O)N(C)CC(=O)N[C@@H](C)C(=O)N[C@@H](CCCNC(=N)N)C(=O)N[C@@H](CC(=O)O)C(=O)N[C@H]1CSCCC(=O)N3CN4CN(C3)C(=O)CCSC[C@H](NC(=O)[C@H](CC(C)C)NC(=O)[C@@H]3CCCN3C(=O)[C@H](CC(N)=O)NC(=O)[C@H](C(C)C)NC(=O)[C@H](CC(C)C)NC(=O)[C@@H]3CCCN3C1=O)C(=O)N[C@@H](CC(C)C)C(=O)N[C@@H](Cc1c[nH]cn1)C(=O)N1CCC[C@H]1C(=O)N[C@H](CC(=O)O)C(=O)N[C@@H](CC1CCc3ccccc31)C(=O)NC(CCCCNC(=N)N)C(=O)N[C@H](C(N)=O)CSCCC4=O)[C@@]1(C)O[C@@H]1[C@@H](C)[C@H]1C[C@](O)(NC(=O)O1)[C@@H](OC)/C=C/C=C(\C)C2` (some centres undefined) gave an unbound share (fraction unbound) at 2 h, 2 µM in data set [1] of 0.44. Further, in data set [2], the minimal effective dose worked out at 3 mg/kg.
Usually half-life stands for the time in which the quantity being followed falls by half. High values mean slow decline, low ones rapid decline. In data set [1], `CC(=O)N[C@@H](C)C(=O)N[C@@H](CCCNC(=N)N)C(=O)N[C@@H](CC(=O)O)C(=O)N[C@@H](CS)C(=O)N1CCC[C@H]1C(=O)N[C@@H](CC(C)C)C(=O)N[C@H](C(=O)N[C@@H](CC(N)=O)C(=O)N1CCC[C@H]1C(=O)N[C@@H](CC(C)C)C(=O)N[C@@H](CS)C(=O)N[C@@H](CC(C)C)C(=O)N[C@@H](Cc1cnc[nH]1)C(=O)N1CCC[C@H]1C(=O)NCC(=O)N[C@@H](Cc1c[nH]c2ccccc12)C(=O)N[C@H](C(=O)N[C@@H](CS)C(=O)O)[C@@H](C)O)C(C)C` displayed a fraction unbound at 2 h, 2 µM of 0.646. Moreover, the half-life at 2 µM in data set [3] was 3.6 h; in data set [4], 3.7 h.
For `CC(C)[C@H](NC(=O)[C@@H](CC(=O)O)NC(=O)[C@H](Cc1c[nH]cn1)NC(=O)CN(C)C(=O)CN(C)C(=O)CN(C)C(=O)CN(C)CC(=O)N(C)CC(=O)N(C)CC(=O)N(C)CC(=O)N(C)CC(=O)N(C)CC(=O)N(C)C(=O)CCN)C(=O)N1CCC[C@H]1C(=O)N[C@@H]1CSCc2cc3cc(c2)CSC[C@H](C(N)=O)NC(=O)[C@@H](CC(=O)O)NC(=O)[C@@H]2CCCN2C(=O)[C@H](CCCCNC(=N)N)NC(=O)[C@H](CC(N)=O)NC(=O)[C@H](C(C)(C)C)NC(=O)[C@@H]2CCCN2C(=O)[C@H](CSC3)NC(=O)[C@H](Cc2cccc3ccccc23)NC(=O)[C@H](Cc2ccccc2)NC(=O)C(C)(C)NC(=O)CNC(=O)[C@H](Cc2cccc3ccccc23)NC(=O)C(C)(C)NC1=O`, the Fu result in data set [5] is “Bld”.
Turning to `CC(C)C[C@@H]1NC(=O)[C@@H]2CSCCC(=O)N3CN(CN(C3)C(=O)CCSC[C@H](NC(=O)[C@H](CC(=O)O)NC(=O)[C@H](CCCNC(=N)N)NC(=O)[C@H](C)NC(=O)CN(C)C(=O)CN(C)C(=O)CN(C)C(=O)CN(C)CC(=O)N(C)CC(=O)N(C)CC(=O)N(C)CC(=O)N(C)CC(=O)N(C)CC(=O)N(C)C(=O)CCN)C(=O)N3CCC[C@H]3C(=O)N[C@@H](CC(C)C)C(=O)N[C@@H](C(C)C)C(=O)N[C@@H](CC(N)=O)C(=O)N3CCC[C@H]3C(=O)N[C@@H](CC(C)C)C(=O)N2)C(=O)CCSC[C@@H](C(N)=O)NC(=O)C(CCCCNC(=N)N)NC(=O)[C@H](CC2CCc3ccccc32)NC(=O)[C@@H](CC(=O)O)NC(=O)[C@@H]2CCCN2C(=O)[C@H](Cc2c[nH]cn2)NC1=O` (some centres undefined), the free fraction (fraction unbound) at 2 h, 2 µM in data set [1] was determined as 0.41. Also, the half-life at 2 µM in data set [3] is 33 h; in data set [4] it was above 55 h.
